In patent US7718618B2, “Human cathelicidin antimicrobial peptides” (priority 2003, dated 2010):
Ends that are not written are not given here.

Columns and labels:
S. aureus mprF = assay: LL-37 incubated in sweat, radial diffusion assay against S. aureus mprF; assay type: cell-based, Staphylococcus aureus; details: protease inhibitor added during incubation, 37° C., 6 hr
Method: Antibacterial activity evaluated by radial diffusion assay against S. aureus mprF after incubation of LL-37 (32 uM) in sweat. a) Increase in the inhibition zone is seen when incubated in sweat but not 10 mM PBS or distilled water (DW). b) Diameters of inhibition zone after 6 hr incubation at 37° C. in (SWT buffer; sweat buffer salts alone), (PBS), (D.W.; distilled water), (SWT; sterile filtered human sweat at 37° C.), (SWT at 4° C.), (SWT with PI, with protease inhibitor cocktail). c) Action of specific protease inhibitors on gain of antimicrobial activity. […] N.E.I.=neutrophil elastase inhibitor, L.E.I.=leukocyte elastase inhibitor. Data are triplicate determinations±SEM from single experiment representative of 3.
Sweat collection and processing. Sweat was collected on paper tissues (Kimwipes, Kimberly-Clark, GA) from healthy volunteers after exercise. After collection, 20 ml of sweat was centrifuged at 2000 g for 15 min. at 4° C., filtered through a […] (Acrodisc syringe filter, […], low protein binding, Fisher scientific, Tustin, Calif.), and frozen at −80° C. […] Protein concentrations were evaluated by BCA assay (protein assay reagent, Pierce, Rockford, Ill.) or Bradford protein assay (Bio-Rad, Hercules, Calif.) according to manufacture's instructions. […]

human erythrocytes = assay: Hemolysis assay on human whole blood; assay type: cell-based; details: peptide at 100 μM; relative to 0.1% Triton X-100
Method: Hemolysis Assay. Hemolytic activity was determined on human whole blood. Freshly obtained whole blood was washed 3× in PBS and resuspended in PBS at its original volume containing peptides at indicated concentrations. Samples were incubated at 37° C. for 1.5 to 3 h, and hemolysis determined by centrifuging at 300 g and measurement of the absorbance of the supernatant at 578 nm. Hemolytic activity of each peptide was expressed as the percentage of total hemoglobin released compared to that released by incubating with 0.1% Triton X-100.

Staphylococcus aureus = assay: S. aureus growth inhibition (turbidity OD600) with or without carbonate; assay type: cell-based
Method: Carbonate was identified as the antimicrobial enhancing factor in mammalian tissue culture media via serial deletion of Minimal Essential Media (MEM) components. Staphylococcus aureus was cultured in 20% Tryptic Soy Broth (TSB), 10% Fetal Bovine Serum (FBS) and 70% of various media or media components with, or without, 32 μM LL-37 to assess which components could increase antimicrobial activity. MEM buffers are 2200 mg/L NaHCO3, 140 mg/L NaH2PO4 and 6800 mg/L NaCl. MEM salts are 200 mg/L CaCl2, 400 mg/L KCl, 98 mg/L MgSO4. All solutions were adjusted to pH 7.4. Bacterial growth was measured as the change in turbidity at OD600 and percent inhibition was determined by comparing bacterial growth in the presence of peptide to that in the absence of peptide.
Inhibition of S. aureus was measured in 20% TSB, 10% FBS 1 mM NaH2PO4, 150 mM NaCl, with either 50 mM NaHCO3 or […] Glycine buffer at various pH.
Inhibition of Staph aureus growth in the presence of various concentrations of human (LL-37), murine (CRAMP) and porcine (PR-39). Cathelicidin antimicrobial peptides was measured in 20% TSB, 1 mM NaH2PO4, with, or without, […] NaHCO3 at pH 7.4.
The growth of S. aureus in the presence, or absence, of 32 μM LL-37 was measured in 20% TSB, 10% FBS, 1 mM NaH2PO4, 150 mM NaCl, and various concentrations of NaHCO3, all at pH 7.4. […] High concentrations of NaHCO3 retarded the growth of S. aureus. […]

E. coli = E. coli susceptibility to CRAMP with or without NaHCO3; assay type: cell-based
Group B Strep (GBS) = assay: Group B Strep susceptibility to CRAMP; assay type: cell-based; details: 16 μM peptide, without NaHCO3
Salmonella = Salmonella susceptibility to CRAMP; assay type: cell-based; details: 16 μM peptide, without NaHCO3
antigen presentation = assay: Antigen presentation in vitro; assay type: cell-based
[1] = test system: Staphylococcus aureus mprF; assay: Radial diffusion assay against S. aureus mprF; assay type: cell-based
Method: Antimicrobial assays. For screening of antimicrobial activity of HPLC fractions, radial diffusion assay was used. Lyophilized HPLC fractions were dissolved in DW (GibcoBRL, Grand Island, N.Y.), and tested against Staphylococcus aureus mprF. Thin plates (1 mm) of 1% agarose in 0.5% tryptone containing approximately 1×10^6 cells/ml of S. aureus mprF were used. 1 mm wells were punched in the plates and […] of samples dissolved in tissue culture grade sterile water were loaded in each well.
(§1) As a positive control, synthetic LL-37 was applied to separate wells. After incubation at 37° C. overnight, the inhibition zones were recorded by CCD camera and diameters measured. To evaluate antimicrobial activity against wild-type S. aureus (clinical isolate), and enteroinvasive E. coli 029, both radial diffusion and solution killing assays were done. Radial diffusion assays were done as described for S. aureus mprF. Solution killing was done in 10% TSB in 10 mM PB (TSB=30 gm/L Tryptic Soy Broth, Sigma, St Louis Mo.; 20×PB=27.6 g/L NaH2PO4-H2O, 53.65 g/L Na2HPO4-7H2O, pH 7.4). Bacteria in log-phase growth were suspended to 1×10^6 cells/ml, peptide added and incubated at 37° C. for 2 hr. Bacteria were then plated on TSB agar (TSB, Bactoagar 13 g/L, Becton Dickinson, Sparks Md.) for direct colony count and determination of CFU.

[2] = test system: wild-type S. aureus (clinical isolate); assay: Radial diffusion assay against wild-type S. aureus; assay type: cell-based, Staphylococcus aureus
Method: as §1

[3] = test system: enteroinvasive E. coli 029; assay: Radial diffusion assay against E. coli O29; assay type: cell-based
Method: as §1

[4] = test system: Group A Streptococcus (NZ131); assay type: cell-based
Method: as §1
(§2) Activity against Group A Streptococcus (NZ131) was done only in solution assay as described. To evaluate antimicrobial activity in high salt conditions, solution assay was done in 10% TSB/10 mM PBS with several salt concentrations (concentration of NaCl; 10, 50, 100, 150, 300, 500 mM). Action against the C. albicans was determined in Dixon medium (0.6% Peptone, 4% Malt Extract, 1% Glucose, 0.1% Ox Bile, 1% Tween-80) in sterile 96-well microtiter plates (Corning Inc., Corning, N.Y.) at a final volume of […]. The assay mixtures contained 1-2.5×10^4 […] freshly grown Candida, 20% Dixon medium, 0.6 mM phosphate buffer pH 7, and […] chloramphenicol. Microtiter plates were incubated at 37° C. for 24 h with peptides, then plated on Dixon agar to determine the MFC (minimum fungicide concentration).

C. albicans ATCC 14053 = assay type: cell-based, Candida albicans
Method: as §2

S. aureus = assay: Release of cytoplasmic beta-galactosidase from S. aureus (membrane disruption); assay type: cell-based; details: with versus without NaHCO3
From the text: Release of cytoplasmic expressed beta-galactosidase was measure from bacteria with and without the addition of NaHCO3.

[5] = 16 μM peptide in presence of NaHCO3
[6] = 16 μM peptide without SOM NaHCO3

Molecule	Radial Diffusion Assay S. aureus MprF, minimal inhibitory concentration (MIC) [1] [μm]	Radial Diffusion Assay S. aureus (wt), minimal inhibitory concentration (MIC) [2] [μm]	Radial Diffusion Assay E. coli (O29), minimal inhibitory concentration (MIC) [3] [μm]	Liquid Assay GAS (NZ131), minimal concentration required to kill [4] [μm]	Liquid Assay C. albicans ATCC 14053, minimal concentration required to kill (C. albicans ATCC 14053) [μm]	other results
NCCc1ccc(S(=O)(=O)F)cc1 [AEBSF]						blocking of the increase in antimicrobial activity of LL-37 in sweat (S. aureus mprF): most effective in blocking the increase in antimicrobial activity
CC[C@H](C)[C@H](NC(=O)[C@H](CCCCN)NC(=O)[C@H](CCC(=O)O)NC(=O)[C@H](CCCCN)NC(=O)[C@H](CO)NC(=O)[C@H](CCCCN)NC(=O)[C@H](CCCNC(=N)N)NC(=O)[C@H](Cc1ccccc1)NC(=O)[C@H](Cc1ccccc1)NC(=O)[C@H](CC(=O)O)NC(=O)CNC(=O)[C@H](CC(C)C)NC(=O)[C@@H](N)CC(C)C)C(=O)NCC(=O)N[C@@H](CCCCN)C(=O)N[C@@H](CCC(=O)O)C(=O)N[C@@H](Cc1ccccc1)C(=O)N[C@@H](CCCCN)C(=O)N[C@@H](CCCNC(=N)N)C(=O)N[C@H](C(=O)N[C@H](C(=O)N[C@@H](CCC(N)=O)C(=O)N[C@@H](CCCNC(=N)N)C(=O)N[C@H](C(=O)N[C@@H](CCCCN)C(=O)N[C@@H](CC(=O)O)C(=O)N[C@@H](Cc1ccccc1)C(=O)N[C@@H](CC(C)C)C(=O)N[C@@H](CCCNC(=N)N)C(=O)N[C@@H](CC(N)=O)C(=O)N[C@@H](CC(C)C)C(=O)N[C@H](C(=O)N1CCC[C@H]1C(=O)N[C@@H](CCCNC(=N)N)C(=O)N[C@H](C(=O)N[C@@H](CCC(=O)O)C(=O)N[C@@H](CO)C(=O)O)[C@@H](C)O)C(C)C)[C@@H](C)CC)C(C)C)[C@@H](C)CC [LL-37]						% hemolysis (human erythrocytes): 9%
Aprotinin						blocking of the increase in antimicrobial activity of LL-37 in sweat (S. aureus mprF): most effective in blocking the increase in antimicrobial activity
CRAMP						susceptibility of S. aureus (Staphylococcus aureus; [5]): became susceptible; susceptibility of S. aureus (Staphylococcus aureus; [6]): resistant; susceptibility of E. coli (E. coli; [5]): became susceptible; susceptibility of E. coli (E. coli; [6]): resistant; susceptibility of Group B Strep (GBS) (Group B Strep (GBS)): susceptible even without NaHCO3; susceptibility of Salmonella (Salmonella): susceptible even without NaHCO3; antigen presentation in vitro (antigen presentation): inhibits antigen presentation in vitro
H-KSKEKIGKEFKRIVQRIKDFLRNLVPRTES-OH [KS-30]	8	16	8	4	2	action against wild-type S. aureus compared to LL-37 [2]: greatly increased action; action against E. coli compared to LL-37 [3]: greatly increased action
H-RKSKEKIGKEFKRIVQRIKDFLRNLVPRTES-OH [RK-31]	8	16	8	8	4	action against wild-type S. aureus compared to LL-37 [2]: greatly increased action; action against E. coli compared to LL-37 [3]: greatly increased action
KRIVQRIKDFLRNLVPRTES [KR-20]	16	>64	>64	4	10	
Polymyxin B						leakage of cytoplasmic protein (beta-galactosidase) (S. aureus): induces greater leakage of cytoplasmic protein with carbonate
SSLLEKGLDGAKKAVGGLGKLGKDAVEDLESVGKGAVHDVKDVLDSV (listed as Homo sapiens) [DCD, dermcidin antimicrobial peptide of human sweat, reference compound]	>64	>64	>64	>64	>32	
